The values that follow come from ChEMBL document CHEMBL3044832, “Synthesis and Insecticidal Activity of N-(Tolyloxybenzyl)-pyrazolecarboxamide Derivatives” (J Pestic Sci, 1999).

Where only a bound is given, the exact number is not on record here.

In data set [1] the test system is Myzus persicae. In words: Insecticidal activity against Myzus persicae (green peach aphid) assessed as insect mortality at 0.78 ppm. The format is functional.
Data set [2] deals with Myzus persicae. In words: Insecticidal activity against Myzus persicae (green peach aphid) assessed as insect mortality at 3.13 ppm. The format is functional.
Data set [3] deals with Myzus persicae. In words: Insecticidal activity against Myzus persicae (green peach aphid) assessed as insect mortality at 12.5 ppm. The class given is functional.
Data set [4] has as its system Myzus persicae. Kind of data set: Insecticidal activity against Myzus persicae (green peach aphid) assessed as insect mortality at 50 ppm. The format is functional.
Data set [5] is described as follows: Acute toxicity in Mus musculus (mouse). The format is organism-based. The conditions noted are these: in vivo.
The test system of data set [6] is Plutella xylostella. In words: Insecticidal activity against Plutella xylostella (diamondback moth) assessed as insect mortality at 3.13 ppm. The class given is functional.
Data set [7] relates to Plutella xylostella. Kind of data set: Insecticidal activity against Plutella xylostella (diamondback moth) assessed as insect mortality at 12.5 ppm. The class given is functional.
Data set [8] deals with Plutella xylostella. In words: Insecticidal activity against Plutella xylostella (diamondback moth) assessed as insect mortality at 0.78 ppm. The format is functional.
Data set [9] concerns Plutella xylostella. In words: Insecticidal activity against Plutella xylostella (diamondback moth) assessed as insect mortality at 50 ppm. The format is functional.

For orientation: mortality means the percentage killed. On to `CCc1nn(C)c(C(=O)NCc2ccc(Oc3ccccc3C)cc2)c1Cl`, for which the mortality at 0.78 ppm with Myzus persicae [1] stood at 0%. For the same compound, the mortality at 3.13 ppm with Myzus persicae [2] came out at 0%. For the same compound, the mortality at 12.5 ppm with Myzus persicae [3] came out at 100%. The mortality at 50 ppm with Myzus persicae [4] was found to be 100%.
The term LD50 denotes the dose expected to kill half of the subjects tested. On to `CC1CCc2c1nn(C)c2C(=O)NCc1ccc(Oc2ccc(C(F)(F)F)cc2)cc1` (configuration not stated), for which the LD50 in data set [5] is less than 30 mg/kg.
`Cc1ccc(Oc2ccc(CNC(=O)c3c(Cl)c(C)nn3C)cc2)cc1`: the mortality at 0.78 ppm with Myzus persicae [1] was 0%. Further, the mortality at 3.13 ppm with Myzus persicae [2] turned out to be 0%. In the data set with Myzus persicae [3], the mortality at 12.5 ppm was found to be 100%. For the same compound, in the data set with Myzus persicae [4], the mortality at 50 ppm is 100%.
Regarding `CCCc1nn(C)c(C(=O)NCc2ccc(Oc3ccc(C)cc3)cc2)c1Cl`, the mortality at 0.78 ppm with Myzus persicae [1] was determined as 0%. In addition, the mortality at 3.13 ppm with Myzus persicae [2] worked out at 0%. Also, in the data set with Myzus persicae [3], the mortality at 12.5 ppm was found to be 0%. Moreover, the mortality at 50 ppm in the data set on Myzus persicae [4] worked out at 80%.
For `Cc1ccc(Oc2ccc(CNC(=O)c3c(Cl)c(C(C)C)nn3C)cc2)cc1`, the mortality at 0.78 ppm with Myzus persicae [1] is 0%. Further, the mortality at 3.13 ppm with Myzus persicae [2] was found to be 0%. The mortality at 12.5 ppm with Myzus persicae [3] was determined as 30%. The mortality at 50 ppm with Myzus persicae [4] amounted to 100%.
Turning to `Cc1ccc(Oc2ccc(CNC(=O)c3c(Cl)c(C(C)(C)C)nn3C)cc2)cc1`, the mortality at 0.78 ppm with Myzus persicae [1] stood at 0%. In addition, in the data set with Myzus persicae [2], the mortality at 3.13 ppm came out at 0%. In the data set on Myzus persicae [3], the mortality at 12.5 ppm turned out to be 0%. Besides, the mortality at 50 ppm in the data set on Myzus persicae [4] is 30%.
In the case of `Cc1ccc(Oc2ccc(CNC(=O)c3c(Cl)c(C(F)(F)F)nn3C)cc2)cc1`, the mortality at 0.78 ppm in the data set with Myzus persicae [1] amounted to 0%. The mortality at 3.13 ppm with Myzus persicae [2] is 0%. Besides, the mortality at 12.5 ppm in the data set with Myzus persicae [3] worked out at 0%. Moreover, the mortality at 50 ppm in the data set with Myzus persicae [4] stood at 0%.
`CCc1cc(C(=O)NCc2ccc(Oc3ccc(C)cc3)cc2)n(C)n1`: in the data set on Myzus persicae [1], the mortality at 0.78 ppm was 0%. Besides, the mortality at 3.13 ppm in the data set with Myzus persicae [2] stood at 0%. For the same compound, the mortality at 12.5 ppm in the data set with Myzus persicae [3] was 0%. For the same compound, in the data set with Myzus persicae [4], the mortality at 50 ppm came to 30%.
On to `CCc1nn(C)c(C(=O)NCc2ccc(Oc3ccc(C)cc3)cc2)c1Br`, for which the mortality at 0.78 ppm in the data set on Myzus persicae [1] was 0%. Further, the mortality at 3.13 ppm in the data set on Myzus persicae [2] worked out at 0%. In addition, the mortality at 12.5 ppm in the data set on Myzus persicae [3] turned out to be 30%. Further, the mortality at 50 ppm in the data set with Myzus persicae [4] was 80%.
Take `CCc1nn(C)c(C(=O)NCc2ccc(Oc3ccc(C)cc3)cc2)c1OC`: the mortality at 0.78 ppm in the data set on Myzus persicae [1] worked out at 0%. The mortality at 3.13 ppm with Myzus persicae [2] worked out at 100%. Besides, in the data set on Myzus persicae [3], the mortality at 12.5 ppm is 100%. Besides, the mortality at 50 ppm in the data set with Myzus persicae [4] came to 100%.
In the case of `Cc1ccc(Oc2ccc(CNC(=O)c3c4c(nn3C)CCC4)cc2)cc1`, in the data set on Myzus persicae [1], the mortality at 0.78 ppm was found to be 0%. In addition, the mortality at 3.13 ppm with Myzus persicae [2] is 0%. Besides, in the data set on Myzus persicae [3], the mortality at 12.5 ppm came to 30%. The mortality at 50 ppm in the data set with Myzus persicae [4] stood at 100%.
As to `Cc1ccc(Oc2ccc(CNC(=O)c3c4c(nn3C)C(C)CC4)cc2)cc1` (configuration not stated), the mortality at 0.78 ppm in the data set with Myzus persicae [1] was determined as 0%. Further, the mortality at 3.13 ppm in the data set on Myzus persicae [2] came to 0%. The mortality at 12.5 ppm in the data set with Myzus persicae [3] worked out at 80%. For the same compound, in the data set on Myzus persicae [4], the mortality at 50 ppm stood at 100%.
Consider `CCC1CCc2c1nn(C)c2C(=O)NCc1ccc(Oc2ccc(C)cc2)cc1` (configuration not stated), for which, in the data set on Myzus persicae [1], the mortality at 0.78 ppm was 0%. In the data set on Myzus persicae [2], the mortality at 3.13 ppm was found to be 0%. The mortality at 12.5 ppm with Myzus persicae [3] came out at 30%. In addition, the mortality at 50 ppm with Myzus persicae [4] came to 80%.
As for `Cc1ccc(Oc2ccc(CNC(=O)c3c4ccccc4nn3C)cc2)cc1`, in the data set with Myzus persicae [1], the mortality at 0.78 ppm worked out at 0%. Also, the mortality at 3.13 ppm in the data set with Myzus persicae [2] amounted to 0%. In addition, the mortality at 12.5 ppm in the data set with Myzus persicae [3] came to 0%. The mortality at 50 ppm in the data set with Myzus persicae [4] amounted to 0%.
Consider `CCc1nn(C)c(C(=O)NCc2ccc(Sc3ccc(C)cc3)cc2)c1Cl`, for which the mortality at 0.78 ppm stood at 30% with Myzus persicae [1] and 0% in the data set with Plutella xylostella [8]. Further, the mortality at 3.13 ppm with Plutella xylostella [6] and in the data set on Myzus persicae [2] was 0% throughout. The mortality at 12.5 ppm in the data set with Plutella xylostella [7] stood at 30%; in the data set with Myzus persicae [3], 100%. Besides, the mortality at 50 ppm in the data set on Myzus persicae [4] is 100%; in the data set with Plutella xylostella [9], 30%.
`CCc1nn(C)c(C(=O)NCc2ccc(Cc3ccc(C)cc3)cc2)c1Cl`: the mortality at 0.78 ppm with Myzus persicae [1] and in the data set with Plutella xylostella [8] was 0% in each case. The mortality at 3.13 ppm with Plutella xylostella [6] and with Myzus persicae [2] was 0% each time. Also, the mortality at 12.5 ppm with Plutella xylostella [7] and in the data set on Myzus persicae [3] was 0% throughout. Also, the mortality at 50 ppm amounted to 0% in the data set on Myzus persicae [4] and 80% in the data set on Plutella xylostella [9].
Regarding `CCc1nn(C)c(C(=O)NCc2ccc(C(=O)c3ccc(C)cc3)cc2)c1Cl`, the mortality at 0.78 ppm was 30% with Myzus persicae [1] and 0% in the data set on Plutella xylostella [8]. Besides, the mortality at 3.13 ppm in the data set with Plutella xylostella [6] and in the data set with Myzus persicae [2] was 0% throughout. Besides, the mortality at 12.5 ppm in the data set with Plutella xylostella [7] and with Myzus persicae [3] was 100% in each case. The mortality at 50 ppm with Myzus persicae [4] and in the data set on Plutella xylostella [9] was 100% in each case.
In the case of `CCc1nn(C)c(C(=O)NCc2ccc(COc3ccc(C)cc3)cc2)c1Cl`, the mortality at 0.78 ppm in the data set on Myzus persicae [1] and in the data set on Plutella xylostella [8] was 0% in each case. Besides, the mortality at 3.13 ppm in the data set on Plutella xylostella [6] and with Myzus persicae [2] was 0% each time. The mortality at 12.5 ppm with Plutella xylostella [7] and in the data set with Myzus persicae [3] was 0% throughout. The mortality at 50 ppm in the data set on Myzus persicae [4] and in the data set with Plutella xylostella [9] was 0% throughout.
For `CCc1nn(C)c(C(=O)NCc2ccccc2Oc2ccccc2C)c1Cl`, the mortality at 0.78 ppm in the data set with Myzus persicae [1] stood at 0%. For the same compound, the mortality at 3.13 ppm in the data set with Myzus persicae [2] worked out at 0%. Further, the mortality at 12.5 ppm in the data set with Myzus persicae [3] is 0%. In the data set with Myzus persicae [4], the mortality at 50 ppm was found to be 0%.
In the case of `CCc1nn(C)c(C(=O)NCc2ccccc2Oc2cccc(C)c2)c1Cl`, the mortality at 0.78 ppm in the data set on Myzus persicae [1] came to 0%. Also, the mortality at 3.13 ppm in the data set on Myzus persicae [2] stood at 0%. Also, the mortality at 12.5 ppm in the data set on Myzus persicae [3] was determined as 0%. Moreover, the mortality at 50 ppm in the data set on Myzus persicae [4] was determined as 0%.
Take `CCc1nn(C)c(C(=O)NCc2ccccc2Oc2ccc(C)cc2)c1Cl`: the mortality at 0.78 ppm with Myzus persicae [1] turned out to be 0%. For the same compound, the mortality at 3.13 ppm in the data set on Myzus persicae [2] amounted to 0%. In addition, the mortality at 12.5 ppm with Myzus persicae [3] is 0%. Besides, in the data set on Myzus persicae [4], the mortality at 50 ppm amounted to 0%.
As to `CCc1nn(C)c(C(=O)NCc2cccc(Oc3ccccc3C)c2)c1Cl`, the mortality at 0.78 ppm with Myzus persicae [1] was found to be 0%. In the data set on Myzus persicae [2], the mortality at 3.13 ppm was determined as 0%. The mortality at 12.5 ppm with Myzus persicae [3] came out at 30%. Also, the mortality at 50 ppm with Myzus persicae [4] is 30%.
As for `CCc1nn(C)c(C(=O)NCc2cccc(Oc3cccc(C)c3)c2)c1Cl`, the mortality at 0.78 ppm in the data set on Myzus persicae [1] was found to be 0%. In addition, in the data set on Myzus persicae [2], the mortality at 3.13 ppm amounted to 0%. Further, the mortality at 12.5 ppm in the data set on Myzus persicae [3] worked out at 30%. In addition, in the data set with Myzus persicae [4], the mortality at 50 ppm is 80%.
On to `CCc1nn(C)c(C(=O)NCc2cccc(Oc3ccc(C)cc3)c2)c1Cl`, for which, in the data set on Myzus persicae [1], the mortality at 0.78 ppm is 0%. Moreover, the mortality at 3.13 ppm in the data set on Myzus persicae [2] was determined as 30%. Moreover, the mortality at 12.5 ppm in the data set on Myzus persicae [3] was found to be 80%. Moreover, in the data set with Myzus persicae [4], the mortality at 50 ppm came to 80%.
Turning to `CCc1nn(C)c(C(=O)NCc2ccc(Oc3cccc(C)c3)cc2)c1Cl`, the mortality at 0.78 ppm with Myzus persicae [1] stood at 0%. In addition, the mortality at 3.13 ppm in the data set on Myzus persicae [2] came to 80%. Also, the mortality at 12.5 ppm in the data set on Myzus persicae [3] was determined as 100%. Moreover, the mortality at 50 ppm with Myzus persicae [4] was found to be 100%.
In the case of `CCc1nn(C)c(C(=O)NCc2ccc(Oc3ccc(C)cc3)cc2)c1Cl` [TOLFENPYRAD], the LD50 in data set [5] is greater than 100 mg/kg. Besides, the mortality at 0.78 ppm was 30% in the data set with Myzus persicae [1] and 0% with Plutella xylostella [8]. Besides, the mortality at 3.13 ppm stood at 30% in the data set on Plutella xylostella [6] and 100% with Myzus persicae [2]. The mortality at 12.5 ppm with Plutella xylostella [7] and in the data set with Myzus persicae [3] was 100% each time. The mortality at 50 ppm with Myzus persicae [4] and in the data set with Plutella xylostella [9] was 100% in each case.
